Measurements as given in BindingDB's records for doi:10.1016/s0960-894x(01)00080-4 (Novartis Pharma Research, 2001).

Target: Epidermal growth factor receptor (Homo sapiens) (UniProt P00533)
Experiment: Tested for inhibitory activity against Epidermal growth factor receptor

Chain of Epidermal growth factor receptor (Homo sapiens) (P00533 whole entry, looked up): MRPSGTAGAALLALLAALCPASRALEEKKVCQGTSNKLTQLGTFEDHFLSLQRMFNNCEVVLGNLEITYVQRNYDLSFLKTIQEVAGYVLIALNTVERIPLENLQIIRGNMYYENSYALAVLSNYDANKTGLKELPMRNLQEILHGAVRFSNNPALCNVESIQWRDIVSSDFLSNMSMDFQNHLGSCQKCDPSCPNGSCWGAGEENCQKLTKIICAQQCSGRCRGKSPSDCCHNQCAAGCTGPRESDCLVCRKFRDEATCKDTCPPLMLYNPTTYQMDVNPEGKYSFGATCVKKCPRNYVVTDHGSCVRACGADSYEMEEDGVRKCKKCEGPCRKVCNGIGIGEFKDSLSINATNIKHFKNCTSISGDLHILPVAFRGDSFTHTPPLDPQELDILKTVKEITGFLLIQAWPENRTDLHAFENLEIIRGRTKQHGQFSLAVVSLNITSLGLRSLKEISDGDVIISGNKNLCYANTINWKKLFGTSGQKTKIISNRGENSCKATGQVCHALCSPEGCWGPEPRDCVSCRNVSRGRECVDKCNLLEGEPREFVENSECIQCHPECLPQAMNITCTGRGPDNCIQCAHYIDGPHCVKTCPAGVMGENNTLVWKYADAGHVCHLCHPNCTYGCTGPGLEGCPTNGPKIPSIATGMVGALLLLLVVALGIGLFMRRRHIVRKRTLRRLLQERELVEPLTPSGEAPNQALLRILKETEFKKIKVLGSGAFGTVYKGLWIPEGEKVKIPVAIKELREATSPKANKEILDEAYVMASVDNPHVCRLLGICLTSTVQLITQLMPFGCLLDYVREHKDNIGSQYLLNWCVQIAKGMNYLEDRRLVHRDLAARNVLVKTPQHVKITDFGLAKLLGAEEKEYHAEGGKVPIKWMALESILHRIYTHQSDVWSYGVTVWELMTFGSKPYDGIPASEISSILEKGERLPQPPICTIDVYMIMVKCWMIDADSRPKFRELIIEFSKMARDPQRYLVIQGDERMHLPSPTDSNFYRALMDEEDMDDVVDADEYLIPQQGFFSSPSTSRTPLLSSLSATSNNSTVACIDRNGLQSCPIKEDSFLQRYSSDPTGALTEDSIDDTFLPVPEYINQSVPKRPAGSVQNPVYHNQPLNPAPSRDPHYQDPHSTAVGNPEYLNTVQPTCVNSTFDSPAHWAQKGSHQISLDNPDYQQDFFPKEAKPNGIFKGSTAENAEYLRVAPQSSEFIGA

IC50 [nM]	SMILES
360	Nc1ncnc2c1c(-c1cccc(O)c1)cn2C1CCN(CCO)CC1 [3-(4-amino-7-(1-(2-hydroxyethyl)piperidin-4-yl)-7H-pyrrolo[2,3-d]pyrimidin-5-yl)phenol]
620	COCCNCCN1CCC(n2cc(-c3cccc(OC)c3)c3c(N)ncnc32)CC1 [7-{1-[2-(2-Methoxy-ethylamino)-ethyl]-piperidin-4-yl}-5-(3-methoxy-phenyl)-7H-pyrrolo[2,3-d]pyrimidin-4-ylamine]
290	COC(=O)CN1CCC(n2cc(-c3cccc(O)c3)c3c(N)ncnc32)CC1 [{4-[4-Amino-5-(3-hydroxy-phenyl)-pyrrolo[2,3-d]pyrimidin-7-yl]-piperidin-1-yl}-acetic acid methyl ester]

Further lines, the molecule ahead of its results:

SMILES	IC50 [nM]
COc1cccc(-c2cn(C3CCN(CCN(C)CCO)CC3)c3ncnc(N)c23)c1 [2-((2-(4-(4-amino-5-(3-methoxyphenyl)-7H-pyrrolo[2,3-d]pyrimidin-7-yl)piperidin-1-yl)ethyl)(methyl)amino)ethanol]	340
CN(C)C(=O)CN1CCC(n2cc(-c3cccc(O)c3)c3c(N)ncnc32)CC1 [2-{4-[4-Amino-5-(3-hydroxy-phenyl)-pyrrolo[2,3-d]pyrimidin-7-yl]-piperidin-1-yl}-N,N-dimethyl-acetamide]	400
